From US11850238B2, “Use of a thienopyridone derivative in the treatment of adrenoleukodystrophy or adrenomyeloneuropathy” (POXEL, priority 2020, dated 2023)

How the values were obtained:
ABCD1-KO mice = assay: In vivo X-ALD mouse, 60 days: VLCFA (C26:0) in brain cortex and plasma; conditions: male ABCD1-KO mice, 75 mg/kg oral gavage twice a day
Description: Male ABCD1-KO mice (n=15) were treated with oral gavage of PXL770 (75 mg/kg) twice a day, every day for 60 days. Untreated ABCD1-KO mice (n=15) and wild-type (WT) mice (n=12) served as controls. Post-treatment mice were sacrificed and brain cortex and plasma were collected for VLCFA analysis. The analysis was performed according to the standardized protocols of the Lipidomics Core Facility and data are expressed as VLCFA μg/ml levels. Hexacosanoic acid (C26:0) was selected as representative for VLCFAs.
(§1) A one-way ANOVA with Dunnett's multiple comparison test was performed to assess the effect of PXL770 on brain's VLCFAs (**** p<0.0001, *** p<0.001). A Kruskal-Wallis test with Dunn's multiple comparison test was performed to assess the effect of PXL770 on plasma's VLCFAs (**** p<0.0001, […]).

[1] = tested on: AMN human patient-derived primary fibroblasts; assay: Hexacosanoic acid (VLCFA) level in AMN patient-derived fibroblasts, LC-MS; format: cell-based
Description: (§2) In order to compare the efficacy of PXL770 and metformin to lower very long chain fatty acids (VLCFA) in vitro, the study focuses on the level assessment of the hexacosanoic acid, which is the most prevalent VLCFA, in healthy control cells and in AMN human patient-derived primary fibroblasts. The cell lines were obtained from Coriell Cell Repositories. Fibroblasts were cultured in DMEM with 15% FBS. The cultures were split in 1:5 ratio. Fibroblasts from healthy patients were used as control. All treatments were in complete media containing fetal bovine serum (FBS, 15%). All cultured cells were maintained at 37° C. in 5% CO2.
(§3) VLCFA content was then measured as follows. Samples are adjusted to a final volume of 0.5-1 ml with LC-MS grade water and spiked with 10 ng of Lignoceric acid-d4 as an internal standard. The sample is acidified to pH 3-4 with dilute hydrochloric acid and extracted with isooctane-ethyl acetate (9:1) three times with equal volume. The extract is dried under nitrogen and the residue is reconstituted in methanol-water-ammonium acetate (75:25:10 mM).
Total fatty acids: After preparing the samples with internal standard as described above for free fatty acids, aqueous sodium hydroxide is added to a final concentration of 1 M. The mixture is incubated at 37° C. in dark under nitrogen for 3 h. The samples are then acidified, extracted, and reconstituted as described above.
LC-MS analysis of fatty acids: The reconstituted fatty acid extracts are subjected to HPLC on Targa C8 column (2×10 mm) using methanol-aqueous ammonium acetate (10 mM) solvent mixture. The column is eluted with a gradient of methanol (75 to 90%) over 8 min at a flow rate of 0.25 ml/min. The column eluent is directly introduced to mass analyzer (QTRAP5500) and monitored for fatty acids using published pseudo MRM method. Under these conditions, the VLCFA elute between 5 and 8 min. Each fatty acid is quantitated against the added internal standard.
The study planned different groups of patients. First, the evolution of hexacosanoic acid in fibroblasts is monitored in healthy control cells and in AMN human patient-derived primary fibroblasts; and in a second time a treatment of PXL770 was assigned to AMN human-derived primary fibroblasts in culture at different doses (PXL770: 0.1, 0.5, 1, 2, 3.5 and 5 μM; metformin: 100, 200, 300 and 400 μM) for one week and the level of hexacosanoic acid was measured.
The experiment described in Example 3 was reproduced with various thienopyridone compounds, namely: • PXL770: potassium 2-chloro-3-(5-hydroxytetralin-6-yl)-6-oxo-5-phenyl-7H-thieno[2,3-b]pyridin-4-olate • PXL700: 2-chloro-4-hydroxy-3-indan-5-yl-5-(3-pyridyl)-7H-thieno[2,3-b]pyridin-6-one • PXL702: 2-chloro-4-hydroxy-3-(4-hydroxyindan-5-yl)-5-phenyl-7H-thieno[2,3-b]pyridin-6-one • PXL695: 2-chloro-5-(3-fluorophenyl)-4-hydroxy-3-(4-hydroxyindan-5-yl)-7H-thieno[2,3-b]pyridin-6-one, • each tested at concentrations from 0.1 to 5 μM.
as §1

[2] = tested on: AMN human patient-derived primary lymphocytes; assay: Hexacosanoic acid (VLCFA) level in AMN patient-derived lymphocytes, LC-MS; format: cell-based
Description: as §2, with “show” for “compare”, “PXL770” for “PXL770 and metformin”, “lymphocytes.” for “fibroblasts.”, “Lymphocytes” for “Fibroblasts”, “RPMI-1640” for “DMEM”, “10% fetal bovine serum (FBS).” for “15% FBS.”
as §3
Total fatty acids: After preparing the samples with internal standard as described above for free fatty acids, aqueous sodium hydroxide is added to a final concentration of 1 M. The mixture is incubated at 37° C. in dark under nitrogen for 3 h. […]
LC-MS analysis of fatty acids: The reconstituted fatty acid extracts are subjected to HPLC on Targa C8 column (2×10 mm) using methanol-aqueous ammonium acetate (10 mM) solvent mixture. […] The column eluent is directly introduced to mass analyzer (QTRAP5500) and monitored for fatty acids using published pseudo MRM method. […] Each fatty acid is quantitated against the added internal standard.
First, the evolution of hexacosanoic acid in lymphocytes is monitored in healthy control cells and in AMN human patient-derived primary lymphocytes; and in a second time a treatment of PXL770 was assigned to AMN human-derived primary lymphocytes in culture at different concentrations (5 μM, 10 μM, 25 μM, 50 μM) for one week and the level of hexacosanoic acid was measured. […]

## O=c1[nH]c2sc(Cl)c(-c3ccc4c(c3O)CCCC4)c2c([O-])c1-c1ccccc1.[K+] [PXL770, monohydrate potassium salt of 2-chloro-4-hydroxy-3-(5-hydroxytetralin-6-yl)-5-phenyl-7H-thieno[2,3-b]pyridin-6-one]
ABCD1-KO mice; FIG. 7
  VLCFA accumulation in the brain cortex: significantly reduces
ABCD1-KO mice; FIG. 8
  VLCFA accumulation in the plasma: significantly reduces
[1]; AMN fibroblasts, PXL770 0.1-5 μM vs metformin 100-400 μM, one week, FIG. 10
  potency and efficacy compared to metformin: much higher potency and efficacy
[1]; AMN fibroblasts, increasing doses 0.1-5 μM, one week, FIG. 10
  level of hexacosanoic acid: decreases
[1]; AMN patient-derived fibroblasts, concentrations from 0.1 to 5 μM, FIG. 14
  VLCFA levels: comparable decrease
[2]; AMN lymphocytes, all doses tested (5, 10, 25, 50 μM), one week, FIG. 1
  level of hexacosanoic acid: strongly decreases
[2]; AMN lymphocytes, doses of 5 and 50 μM, one week, FIG. 1
  level of hexacosanoic acid compared to healthy controls: same level as that present in lymphocytes of healthy controls
[2]; AMN patient cells, 5 μM
  VLCFA content, normalization: normalization effect
